Key:
[1] = target: T1, alpha4-beta7 (Homo sapiens, UniProt P13612+P26010); experiment: Alpha4-Beta7 Assay (MadCAM/RPMI 8866 cell adhesion); assay type: cell-based; settings: calcein labeled RPMI 8866 cells adhering to immobilized MadCAM
T1 construct: Sufficient RPMI 8866 cells were removed from stock for assay; endogenous in cells; host or cells: RPMI 8866 cells
T1 sequence (P13612 34-1032): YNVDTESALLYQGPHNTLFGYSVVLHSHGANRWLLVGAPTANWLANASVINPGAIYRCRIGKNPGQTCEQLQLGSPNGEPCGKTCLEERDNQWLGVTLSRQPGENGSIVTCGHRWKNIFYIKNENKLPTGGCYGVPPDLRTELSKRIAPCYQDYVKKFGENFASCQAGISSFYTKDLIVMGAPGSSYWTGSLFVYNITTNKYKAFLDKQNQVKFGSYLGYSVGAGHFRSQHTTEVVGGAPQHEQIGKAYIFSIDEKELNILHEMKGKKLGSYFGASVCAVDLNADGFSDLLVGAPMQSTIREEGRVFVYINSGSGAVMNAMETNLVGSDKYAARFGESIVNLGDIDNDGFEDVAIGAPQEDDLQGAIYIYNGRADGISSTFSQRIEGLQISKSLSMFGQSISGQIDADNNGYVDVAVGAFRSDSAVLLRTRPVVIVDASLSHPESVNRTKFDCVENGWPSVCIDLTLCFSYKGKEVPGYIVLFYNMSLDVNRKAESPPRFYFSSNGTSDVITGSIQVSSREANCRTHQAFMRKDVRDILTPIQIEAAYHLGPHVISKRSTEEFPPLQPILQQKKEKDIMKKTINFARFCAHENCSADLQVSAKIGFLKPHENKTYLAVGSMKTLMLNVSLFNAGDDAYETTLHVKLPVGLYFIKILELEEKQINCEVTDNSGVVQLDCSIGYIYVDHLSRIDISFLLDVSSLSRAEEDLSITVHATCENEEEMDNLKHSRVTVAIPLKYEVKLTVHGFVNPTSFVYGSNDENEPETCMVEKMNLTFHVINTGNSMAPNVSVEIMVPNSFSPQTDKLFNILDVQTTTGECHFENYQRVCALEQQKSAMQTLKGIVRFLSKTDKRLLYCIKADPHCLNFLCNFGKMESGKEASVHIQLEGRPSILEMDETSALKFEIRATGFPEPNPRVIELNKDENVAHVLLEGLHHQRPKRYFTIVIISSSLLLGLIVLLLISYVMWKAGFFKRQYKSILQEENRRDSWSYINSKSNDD
T1 sequence (P26010 20-798): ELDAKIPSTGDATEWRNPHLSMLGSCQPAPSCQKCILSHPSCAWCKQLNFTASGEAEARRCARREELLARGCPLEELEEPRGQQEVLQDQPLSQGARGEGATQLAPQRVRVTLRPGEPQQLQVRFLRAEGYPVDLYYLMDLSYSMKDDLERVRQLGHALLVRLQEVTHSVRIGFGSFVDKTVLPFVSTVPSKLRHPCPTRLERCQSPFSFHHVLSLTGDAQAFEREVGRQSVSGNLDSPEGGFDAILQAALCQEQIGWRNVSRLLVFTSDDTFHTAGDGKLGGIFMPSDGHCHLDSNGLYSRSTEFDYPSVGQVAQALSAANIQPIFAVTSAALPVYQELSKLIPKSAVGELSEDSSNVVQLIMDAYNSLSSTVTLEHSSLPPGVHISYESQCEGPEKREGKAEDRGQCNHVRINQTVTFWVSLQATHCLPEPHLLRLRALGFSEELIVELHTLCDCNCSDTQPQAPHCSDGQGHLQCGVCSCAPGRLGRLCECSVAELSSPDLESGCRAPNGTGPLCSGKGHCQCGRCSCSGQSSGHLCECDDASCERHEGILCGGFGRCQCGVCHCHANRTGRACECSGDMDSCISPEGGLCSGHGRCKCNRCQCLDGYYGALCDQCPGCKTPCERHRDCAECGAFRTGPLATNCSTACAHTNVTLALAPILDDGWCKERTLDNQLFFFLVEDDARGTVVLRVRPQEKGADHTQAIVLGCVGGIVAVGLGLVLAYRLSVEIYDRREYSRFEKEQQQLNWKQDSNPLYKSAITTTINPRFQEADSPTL
Protocol: Alpha4-Beta7 Assay Protocol
Two weeks to one day prior to the assay, Nunc high-binding F96 Maxisorp immuno plates, #442404 or #439454, were coated with 25 ng/well (0.25 μg/ml) MadCAM in a volume of 100 μl/well. The plates were covered with sealer and wrapped in saran wrap followed by incubation in the refrigerator for at least 24 hours. The coating buffer employed was: 10 mM carbonate/bicarbonate buffer made up from: 0.8 g/L sodium carbonate and 1.55 g/L sodium bicarbonate adjusted to pH 9.6 with 1 N HCl. Assay buffers consisted of the following:
Plates were washed 2× with wash buffer and then blocked at room temperature for at least 1 hour with Blocking Buffer. Sealed plates were sometimes blocked overnight in the refrigerator. Plates were then washed with PBS and hand blotted dry. Remaining liquid was aspirated from the wells.
Sufficient RPMI 8866 cells were removed from stock for assay (2×10^6 cells/ml×10 ml/plate×number of plates) and placed in a centrifuge tube. The tubes were filled to volume with PBS and were spun at 200×G for 8 minutes. The buffer was poured off and the cells were resuspended to 10×10^6/ml in PBS and a stock solution of calcein in DMSO (5mg/mL) was added at 51 μl/ml of cell suspension. The suspension was incubated for 30 minutes at 37° C. in dark. The cells were then washed with PBS. The PBS was poured off and the cells resuspended in cell buffer at a concentration of 2×10^6 cells/mL for plating in the assay.
Stock solution of test compounds at 25× first dilution desired in 100% DMSO were prepared. First dilutions for the standard, as well as test compounds, were 1:25 into straight Binding Buffer, while the remaining serial dilutions were into Dilution Buffer (Binding Buffer/4% DMSO). Stock concentrations and dilutions of compounds for screening were determined by anticipated activity.
For the assay, 129 μl Binding Buffer was plated into first row of wells and 100 μl Dilution Buffer was plated into remaining wells. A 5.44 μl aliquot of each compound was pipetted into appropriate, labeled wells, in triplicate. The compounds were next diluted down the plate (34 μl+100 μl=>4-fold dilution). For controls, 100 μl of Dilution Buffer 100 μl Cell Buffer were plated into the nonspecific background wells (no cells, no compound) and 100 μl Dilution Buffer+100 μl cells were plated into the total binding wells (no compound=100% binding). Labeled cells at 2×10^6 cells/ml, 100 μl/well (=2×10^5 cells/well) were added to each well containing compound. The plates were sealed and incubated in the dark for 45 minutes at room temperature. Following incubation, unbound cells were removed by adding 150 μl PBS/well. The plates were inverted, blotted onto paper towels and washed by gently adding 200 μl PBS to wells and blotting again. Remaining buffer was carefully aspirated from the wells. A final 100 μl PBS was added to each well.
The plates were then read for fluorescence intensity on a Cytofluor 2300 (Millipore) fluorecence measurement system (excitation=485 nm, emission=530 nm). IC50s of each compound were determined by linear regression analysis.

Row | SMILES | IC50 [1] [µM] | melting point [°C]
1 | Cc1c(-c2ccc(C[C@H](NC(=O)c3c(Cl)cccc3Cl)C(=O)O)cc2)c(=O)n(C)c(=O)n1C [Example 6, N-[(2,6-dichlorophenyl)carbonyl]-4-(1,3,6-trimethyl-2,4-dioxo-5-pyrimidinyl)-L-phenylalanine] | < 0.1 | 
2 | COCCC1(C(=O)N[C@@H](Cc2ccc(-c3c(C)n(C)c(=O)n(C)c3=O)cc2)C(=O)O)CCCC1 [Example 7, N-[[1-(2-methoxyethyl)cyclopentyl]carbonyl]-4-(1,3,6-trimethyl-2,4-dioxo-5-pyrimidinyl)-L-phenylalanine] | < 0.1 | 
3 | Cc1cccc(Br)c1C(=O)N[C@@H](Cc1ccc(-c2c(C)n(C)c(=O)n(C)c2=O)cc1)C(=O)O [Example 8, N-[(2-bromo-6-methylphenyl)carbonyl]-4-(1,3,6-trimethyl-2,4-dioxo-5-pyrimidinyl)-L-phenylalanine] | < 0.1 | 240 to 242
4 | Cc1cccc(Cl)c1C(=O)N[C@@H](Cc1ccc(-c2c(C)n(C)c(=O)n(C)c2=O)cc1)C(=O)O [Example 9, N-[(2-chloro-6-methylphenyl)carbonyl]-4-(1,3,6-trimethyl-2,4-dioxo-5-pyrimidinyl)-L-phenylalanine] | < 0.1 | 
5 | CCc1cccc(C)c1C(=O)N[C@@H](Cc1ccc(-c2c(C)n(C)c(=O)n(C)c2=O)cc1)C(=O)O [Example 10, N-[(2-ethyl-6-methylphenyl)carbonyl]-4-(1,3,6-trimethyl-2,4-dioxo-5-pyrimidinyl)-L-phenylalanine] | < 10 | 127 to 133
6 | Cc1cccc(C(C)C)c1C(=O)N[C@@H](Cc1ccc(-c2c(C)n(C)c(=O)n(C)c2=O)cc1)C(=O)O [Example 11, N-[[2-(2-methylethyl)-6-methylphenyl]carbonyl]-4-(1,3,6-trimethyl-2,4-dioxo-5-pyrimidinyl)-L-phenylalanine] | < 5 | 
7 | Cc1c(-c2ccc(C[C@H](NC(=O)c3c(F)cccc3F)C(=O)O)cc2)c(=O)n(C)c(=O)n1C [Example 12, N-[(2,6-difluorophenyl)carbonyl]-4-(1,3,6-trimethyl-2,4-dioxo-5-pyrimidinyl)-L-phenylalanine] | < 0.1 | 
8 | Cc1c(-c2ccc(C[C@H](NC(=O)c3c(F)cccc3C(F)(F)F)C(=O)O)cc2)c(=O)n(C)c(=O)n1C [Example 13, N-[(2-fluoro-6-(trifluoromethyl)phenyl)carbonyl]-4-(1,3,6-trimethyl-2,4-dioxo-5-pyrimidinyl)-L-phenylalanine] | < 10 | 218 to 220
9 | Cc1c(-c2ccc(C[C@H](NC(=O)c3c(C(C)C)cccc3C(C)C)C(=O)O)cc2)c(=O)n(C)c(=O)n1C [Example 14, N-[[2,6-di-(2-methylethyl)phenyl]carbonyl]-4-(1,3,6-trimethyl-2,4-dioxo-5-pyrimidinyl)-L-phenylalanine] | < 5 | 
10 | CCc1cccc(Cl)c1C(=O)N[C@@H](Cc1ccc(-c2c(C)n(C)c(=O)n(C)c2=O)cc1)C(=O)O [Example 15, N-[(2-chloro-6-ethylphenyl)carbonyl]-4-(1,3,6-trimethyl-2,4-dioxo-5-pyrimidinyl)-L-phenylalanine] | < 10 | 187 to 190
11 | CCCc1cccc(Cl)c1C(=O)N[C@@H](Cc1ccc(-c2c(C)n(C)c(=O)n(C)c2=O)cc1)C(=O)O [Example 16, N-[(2-chloro-6-propylphenyl)carbonyl]-4-(1,3,6-trimethyl-2,4-dioxo-5-pyrimidinyl)-L-phenylalanine] | < 10 | 225 to 227
12 | CCn1c(C)c(-c2ccc(C[C@H](NC(=O)c3c(Cl)cccc3Cl)C(=O)O)cc2)c(=O)n(CC)c1=O [Example 18, N-[(2,6-dichlorophenyl)carbonyl]-4-(1,3-diethyl-6-methyl-2,4-dioxo-5-pyrimidinyl)-L-phenylalanine] | < 0.1 | 
13 | CCn1c(C)c(-c2ccc(C[C@H](NC(=O)c3c(C)cccc3Cl)C(=O)O)cc2)c(=O)n(CC)c1=O [Example 19, N-[(2-chloro-6-methylphenyl)carbonyl]-4-(1,3-diethyl-6-methyl-2,4-dioxo-5-pyrimidinyl)-L-phenylalanine] | < 10 | 
14 | CCn1c(C)c(-c2ccc(C[C@H](NC(=O)C3(CCOC)CCCC3)C(=O)O)cc2)c(=O)n(CC)c1=O [Example 20, 4-(1,3-diethyl-6-methyl-2,4-dioxo-5-pyrimidinyl)-N-[[1-(2-methoxyethyl)cyclopentyl]carbonyl]-L-phenylalanine] | < 10 | 
15 | Cc1cc(C[C@H](NC(=O)c2c(Cl)cccc2Cl)C(=O)O)ccc1-c1cn(C)c(=O)n(C)c1=O [Example 25, N-[(2,6-dichlorophenyl)carbonyl]-4-(1,3-dimethyl-2,4-dioxo-5-pyrimidinyl)-3-methyl-L-phenylalanine] | < 10 | 
16 | Cc1cc(C[C@H](NC(=O)c2c(Cl)cccc2Cl)C(=O)O)ccc1-c1c(C)n(C)c(=O)n(C)c1=O [Example 26, N-[(2,6-dichlorophenyl)carbonyl]-4-(1,3,6-trimethyl-2,4-dioxo-5-pyrimidinyl)-3-methyl-L-phenylalanine] | < 10 | 
17 | CCOC(=O)[C@H](Cc1ccc(-c2c(C)n(C)c(=O)n(C)c2=O)cc1)NC(=O)c1c(Cl)cccc1Cl [Example 27, N-[(2,6-dichlorophenyl)carbonyl]-4-(1,3,6-trimethyl-2,4-dioxo-5-pyrimidinyl)-L-phenylalanine ethyl ester] | < 10 | 

Reference: patent US6380387B1, “4-Pyrimidinyl-n-acyl-l phenylalanines” (Hoffmann-La Roche Inc., priority 1999, dated 2002)
